Series [1] deals with A549b cells. As to the kind of experiment: Proliferation of A549b cells after transfection with antisense OLIGO/siRNA (cell counting, % of control OLIGO). The conditions noted are these: 20 nM; compared to non-targeting OLIGO 491S; preliminary assay, FIG. 12. The class given is cell-based, human. As for the experimental part: Cultured cell lines were maintained in minimum essential medium a with nucleosides plus 10% fetal bovine serum and penicillin (50 units/mL)/streptomycin (50 mg/L) (growth medium). Cultures were incubated in a humidified atmosphere of 5% CO2 at 37° C. Cultured cell lines were maintained and cytotoxicity assays conducted as described previously (3). Rapidly proliferating cells were utilized for establishing cultures of experimental cells, which were allowed to plate overnight in 25-cm^2 flasks prior to manipulation. […]
OLIGOs were introduced into cells with the use of Lipofectamine 2000 (LFA2K) (Invitrogen, Burlington, Ontario, Canada). […] Following the 4-day incubation, the proliferation of the treated cells (fold-increase in cell number) was calculated as a percentage of that of control cells. […] For the purpose of determining the anti-proliferative effect of antisense OLIGOs, the proliferation of cells treated with antisense OLIGOs was calculated as a percent of that of cells treated with an equivalent concentration of non-complementary control OLIGO (in this case OLIGO 32) mixed with an equivalent amount of LFA2K.
These experiments were carried out essentially as described in Example 2, after which one volume of medium was added, and cells were further incubated for 20 hours. […] Cells were incubated for 4 days, at which time cell number was counted. […]

Series [2] has as its system thymidylate synthase mRNA. Description: RT-qPCR of TS mRNA 24 h after OLIGO transfection of A549 cells. It counts as cell-based, human. As to conditions: 20 nM OLIGO, 24 h post-transfection, FIG. 16. Here is the method:
(§1) Briefly, A549 cells seeded at a density of 2.0×10^5 per flask were transfected with 20 nM of OLIGO specific for each target or control OLIGO using Lipofectamine 2000 as the transfection reagent. Twenty four hours post-transfection mRNA was extracted and reverse transcribed into cDNA. RT-qPCR was performed for target mRNA levels using TaqMan reagents according to established protocols.
In general terms: Quantitative PCR measures a nucleic acid by following its amplification.

For series [3], the system named is BRCA2 mRNA. As to the kind of experiment: RT-qPCR of BRCA2 mRNA 24 h after OLIGO transfection of A549 cells. The class given is cell-based, human. The conditions noted are these: 20 nM OLIGO, 24 h post-transfection, FIG. 16. As for the experimental part:
as §1

Series [4] has as its system A549b cells. Description: Anti-proliferative activity of a drug on A549b cells pretreated with anti-BRCA2 OLIGO/siRNA. The class given is cell-based. As to conditions: Homo sapiens, curves conservatively extrapolated, read-out: concentration of olaparib required to inhibit proliferation of A549b cells by 50% (IC50). Here is the method: OLIGOs were introduced into cells with the use of Lipofectamine 2000 (LFA2K) (Invitrogen, Burlington, Ontario, Canada). OLIGOs were mixed with LFA2K at a ratio of 0.2 μg/ml per 10 nM OLIGO. The mixture was prepared at 11× the final concentration to which cells were exposed, so that 200 μL was added to 2 mL of medium in which cells were plated. After incubating at room temperature for 20 minutes, according to manufacturer's instructions, the OLIGOs were added to the cell medium. The OLIGO/LFA2K mix was then incubated (37° C.) on the cells for 4 hours, after which a second volume of medium was added. Cells were then incubated for 20 hours. […]
For cells treated with the drug olaparib, for the purposes of determining whether inhibitory activity was enhanced by the OLIGO pretreatment, olaparib was added at this time, in concentrations of from 0.01 μM to 3 μM. […] Following a further 4-day incubation, the proliferation of the treated cells (fold-increase in cell number) was calculated as a percentage of that of control cells. […] As indicated in Example 1, for the purpose of determining the anti-proliferative effect of antisense OLIGOs alone, the proliferation of cells treated with antisense OLIGOs was calculated as a percent of that of cells treated with an equivalent concentration of non-complementary control OLIGO (in this case OLIGO 32). […]

pIC50: −log10 of the molar value. Where two headings read alike, the source gives them in different places. d = 2'-deoxy (DNA); m = 2'-O-methyl

Regarding “OLIGO 83: antisense to 3′-untranslated region of thymidylate synthase mRNA, 5′-gccaguGGCAACATccuuaa-3′ (SEQ ID NO: 25), fully phosphorothioated (antisense GCCAGUGGCAACATCCUUAA; sugars from the 5' end m6 d8 m6, all phosphorothioate, methylation of C not given here)”, the relative proliferation result in series [1] is on record as “approximately 20%”. The “effect on TS mRNA level” value in series [2] is “reduce”. The “effect on BRCA2 mRNA level” value in series [3] is “no significant effect”.

`O=C(c1cc(Cc2n[nH]c(=O)c3ccccc23)ccc1F)N1CCN(C(=O)C2CC2)CC1` [olaparib]: the pIC50 in series [4] (in the absence of BR1) is approximately 5.30; in series [4] (in the presence of BR1 (pretreatment)), approximately 7.30.

Source of the values: patent publication US9359605B2, “Method of treating cancer by inhibition of DNA repair proteins” (Sarissa Inc., priority 2011, dated 2016).
